± gives the standard deviation.
Legend:
[1] = chemical recovery from spiked human plasma; higher = better extraction; details: pooled human plasma
[2] = chemical recovery into PDMS from spiked human plasma; higher = better extraction; details: pooled human plasma, extraction method: PES with PDMS
[3] = chemical recovery by SPE of plasma after PDMS sampling; higher = better extraction; details: pooled human plasma, extraction method: HLB SPE of plasma after PES
[4] = extraction method: SPE only (HLB 96-well)
[5] = extraction method: SPE only (HLB 96-well), PES comparison experiment
[6] = extraction method: solvent precipitation (ACN + hexane)
[7] = extraction method: PES+SPE (3 d PDMS equilibration then HLB SPE)
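For chemical recovery by SPE of plasma after PDMS sampling in this document: over 400 spiked chemicals quantified by LC-HRMS or GC-HRMS via internal standard calibration, recovery relative to spike mix added to unspiked plasma extract to correct matrix effects.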

chemical recovery [1, 7] [%] | Structure (SMILES) | chemical recovery [1, 4] [%] | chemical recovery [1, 5] [%] | chemical recovery [1, 6] [%] | chemical recovery into PDMS ([2]; equilibration time (d): 1) [%] | chemical recovery into PDMS ([2]; equilibration time (d): 3) [%] | chemical recovery into PDMS ([2]; equilibration time (d): 6) [%] | chemical recovery by SPE of plasma ([3]; equilibration time (d): 1) [%] | chemical recovery by SPE of plasma ([3]; equilibration time (d): 3) [%] | chemical recovery by SPE of plasma ([3]; equilibration time (d): 6) [%]
– | CCN(CC)c1nc(C)cc(OP(=S)(OC)OC)n1 [Pirimiphos-methyl] | 36.4 ± 3.4 | 42.9 ± 8.2 | 68.8 ± 5.2 | 29.7 ± 4.3 | 33.5 ± 3.9 | 32.1 ± 0.42 | 0.602 ± 0.13 | 0.453 ± 0.41 | 0.275 ± 0.24
– | C[C@]12C=CC(=O)C=C1CC[C@@H]1[C@@H]2C(=O)C[C@@]2(C)[C@H]1CC[C@]2(O)C(=O)CO [Prednisone] | – | 45.5 ± 5.8 | – | – | 0.176 ± 0.18 | 0.265 ± 0.091 | 41.6 ± 4.3 | 43.7 ± 5.1 | 41.1 ± 2.4
1.17 ± 0.37 | CCCNCCOc1c(Cl)cc(Cl)cc1Cl [Prochloraz BTS403-48] | 47.1 ± 2 | 46.2 ± 5.1 | 71.2 ± 3 | 0.602 ± 0.13 | 0.604 ± 0.12 | 0.862 ± 0.22 | 0.247 ± 0.057 | 0.287 ± 0.11 | 0.165 ± 0.0069
– | CC(C)N(C(=O)CCl)c1ccccc1 [Propachlor] | 28.6 ± 2.1 | 41.4 ± 7.8 | 45.1 ± 10 | 31.9 ± 1.8 | 34.7 ± 3.9 | 35.3 ± 2.5 | 1.58 ± 0.41 | 2.49 ± 0.44 | 1.58 ± 0.092
– | CCCC1COC(Cn2cncn2)(c2ccc(Cl)cc2Cl)O1 (stereo not drawn) [Propiconazole] | – | 43.1 ± 6.8 | 70.3 ± 3.4 | 38.2 ± 2.5 | 41 ± 3.7 | 40.7 ± 1.6 | 0.277 ± 0.24 | 0.384 ± 0.17 | 0.117 ± 0.052
7.98 ± 1.1 | CC(C)NCC(O)COc1cccc2ccccc12 (stereo not drawn) [Propranolol] | 45.4 ± 2.9 | 50 ± 7 | 71.9 ± 3.2 | 0.322 ± 0.19 | 0.522 ± 0.36 | 0.438 ± 0.19 | 8.66 ± 0.64 | 9.06 ± 1.1 | 7.31 ± 0.57
56.4 ± 4.7 | CCCOC(=O)c1ccc(O)cc1 [Propylparaben] | 43.1 ± 2.1 | 67.9 ± 7.4 | 70.6 ± 3.7 | 11.6 ± 0.24 | 13.2 ± 1.9 | 14.8 ± 2 | 40.3 ± 8.2 | 43 ± 3.8 | 34 ± 0.68
48.4 ± 9.9 | Cc1c(C(C)C)c(=O)n(-c2ccccc2)n1C [Propyphenazone] | 44.6 ± 2.6 | 47.3 ± 6.5 | 69.31 ± 0.67 | 17.3 ± 1.9 | 22 ± 0.25 | 23 ± 2.1 | 4.36 ± 0.18 | 3.89 ± 0.79 | 2.01 ± 0.19
– | OC(Cc1ccccc1Cl)(Cn1cncn1)C1(Cl)CC1 (stereo not drawn) [Prothioconazole-desthio] | – | 47 ± 6.8 | 89.2 ± 4 | 36.2 ± 2.6 | 38.6 ± 2 | 38.5 ± 1.7 | 0.693 ± 0.059 | 0.829 ± 0.22 | 0.428 ± 0.025
– | c1cc2ccc3cccc4ccc(c1)c2c34 [Pyrene] | 19.5 ± 5.1 | 19.4 ± 2.8 | – | – | 79.6 ± 17 | 77.8 ± 20 | 4.17 ± 2.2 | 5.06 ± 1.2 | 3.59 ± 0.37
– | c1ccc2ncccc2c1 [Quinoline] | 16.5 ± 4.6 | – | – | 8.77 ± 5.3 | 9.55 ± 7.5 | 4.43 ± 4.2 | 0.053 ± 0.092 | 0.00565 ± 0.0098 | 0.0105 ± 0.018
– | Fc1ccc(Oc2ccnc3cc(Cl)cc(Cl)c23)cc1 [Quinoxyfen] | 57.2 ± 16 | 31.6 ± 5.7 | 96.2 ± 9.7 | 48 ± 4.7 | 50.5 ± 5.9 | 48.7 ± 2 | – | 0.232 ± 0.06 | –
– | Cc1nc2n(c(=O)c1CCN1CCC(c3noc4cc(F)ccc34)CC1)CCCC2 [Risperidone] | – | – | 73.2 ± 3.6 | 0.00139 ± 0.0024 | 0.000765 ± 0.0018 | – | 4.71 ± 0.66 | 3.9 ± 0.9 | 2.32 ± 0.59
1.09 ± 0.4 | CN[C@H]1CC[C@@H](c2ccc(Cl)c(Cl)c2)c2ccccc21 [Sertraline] | 71.9 ± 9.3 | 40.5 ± 8.4 | 72.8 ± 3.8 | 0.493 ± 0.065 | 0.434 ± 0.081 | 0.535 ± 0.27 | 0.296 ± 0.11 | 0.321 ± 0.11 | 0.0944 ± 0.088
– | CCNc1nc(NCC)nc(SC)n1 [Simetryn] | 41.6 ± 3.2 | 46.7 ± 4.3 | 70.9 ± 3.6 | 21.2 ± 8.1 | 25.4 ± 8.6 | 28.9 ± 5.6 | 12.9 ± 2.2 | 5.73 ± 0.83 | 3.34 ± 0.47
– | CC[C@H]1CCC[C@H](O[C@H]2CC[C@H](N(C)C)[C@@H](C)O2)[C@@H](C)C(=O)C2=C[C@@H]3[C@@H](C=C[C@@H]4C[C@@H](O[C@@H]5O[C@@H](C)[C@H](OC)[C@@H](OC)[C@H]5OC)C[C@@H]34)[C@@H]2CC(=O)O1 [Spinosyn A] | – | 39.5 ± 10 | 71.7 ± 10 | 0.00824 ± 0.014 | 0.0193 ± 0.034 | 0.00695 ± 0.012 | 0.0715 ± 0.12 | 0.155 ± 0.14 | 0.0384 ± 0.0082
– | O=P(OC(CCl)CCl)(OC(CCl)CCl)OC(CCl)CCl [TDCPP] | 46.5 ± 0.97 | 50.5 ± 5.6 | – | 35.2 ± 3 | 37.4 ± 4.4 | 35.8 ± 3 | 4.16 ± 3.7 | 4.02 ± 4.5 | 2.14 ± 3.7
– | CC(C)CC(C)(O)C#CC(C)(O)CC(C)C (stereo not drawn) [TMDD] | 47.5 ± 6 | – | 77.6 ± 7 | 47.1 ± 4.9 | – | 60.2 ± 18 | – | – | 38.6 ± 6
55.8 ± 1.8 | CCCc1nc2c(C)cc(-c3nc4ccccc4n3C)cc2n1Cc1ccc(-c2ccccc2C(=O)O)cc1 [Telmisartan] | 50.8 ± 2.5 | 45.4 ± 5.1 | – | 0.144 ± 0.041 | 0.817 ± 0.34 | 1.28 ± 0.6 | 43.6 ± 3.4 | 46.2 ± 1 | 43.5 ± 2.1
– | CN(C/C=C/C#CC(C)(C)C)Cc1cccc2ccccc12 [Terbinafine] | 46.4 ± 1 | 50 ± 10 | 86.4 ± 13 | 0.00204 ± 0.0035 | 0.065 ± 0.1 | 0.00509 ± 0.0088 | 0.265 ± 0.18 | 0.2 ± 0.089 | 0.0441 ± 0.0079

Structure (SMILES) | chemical recovery [1, 7] [%] | chemical recovery [1, 4] [%] | chemical recovery [1, 5] [%] | chemical recovery [1, 6] [%] | chemical recovery into PDMS ([2]; equilibration time (d): 1) [%] | chemical recovery into PDMS ([2]; equilibration time (d): 3) [%] | chemical recovery into PDMS ([2]; equilibration time (d): 6) [%] | chemical recovery by SPE of plasma ([3]; equilibration time (d): 1) [%] | chemical recovery by SPE of plasma ([3]; equilibration time (d): 3) [%] | chemical recovery by SPE of plasma ([3]; equilibration time (d): 6) [%]
C#CC(C)(C)NC(=O)c1cc(Cl)cc(Cl)c1 [Propyzamide] | 64.9 ± 12 | 65 ± 3.2 | 48.1 ± 8.4 | 64.8 ± 3.9 | 34.8 ± 1.4 | 38.5 ± 1.1 | 39.4 ± 0.71 | 5.12 ± 0.61 | 7.16 ± 0.99 | 4.71 ± 0.68
CCNc1nc(Cl)nc(NCC)n1 [Simazine] | 47.8 ± 5.9 | 43.4 ± 2.3 | 48.6 ± 5.5 | 60.6 ± 5.9 | 30.5 ± 1.1 | 35.8 ± 1.3 | 38.6 ± 2.5 | 9.65 ± 1.2 | 7.56 ± 1.3 | 4.81 ± 0.55
CS(=O)(=O)c1ccc(C(=O)C2C(=O)CCCC2=O)c(Cl)c1 [Sulcotrione] | 57 ± 5.9 | 47.6 ± 3.3 | 51.3 ± 2.9 | 72.8 ± 3.6 | – | – | 0.00153 ± 0.0027 | 53.9 ± 7 | 59.9 ± 2.5 | 54.5 ± 2
CN1C(=O)C(O)N=C(c2ccccc2)c2cc(Cl)ccc21 (stereo not drawn) [Temazepam] | 62.9 ± 6.2 | 46.8 ± 2.9 | 44.5 ± 6.3 | 77.8 ± 3.1 | 11.2 ± 0.91 | 16.5 ± 0.71 | 17.6 ± 1.9 | 30.4 ± 4.8 | 27.9 ± 3.1 | 22 ± 2.1
CC/C(=N\OC/C=C/Cl)C1=C(O)CC(C2CCOCC2)CC1=O (stereo not drawn) [Tepraloxydim] | 45.7 ± 5 | 40.5 ± 2.5 | 51.8 ± 3 | 73.8 ± 3.1 | 0.0964 ± 0.084 | 0.473 ± 0.3 | 0.369 ± 0.063 | 47.5 ± 6.9 | 48.3 ± 2.9 | 41.9 ± 3.2
